Reference: patent EP0381533A2, “Cyclic monophosphates of purine and pyrimidine acyclonucleosides” (Merck & Co., Inc., priority 1989, dated 1990)

tested on: Eisenhart Human Cytomegalovirus; test: Human Cytomegalovirus (HCMV) Plaque Reduction Assay; assay type: cell-based; settings: MRC-5 cells (human fetal lung); ~60 PFUs; plaques counted on day 6 post inoculation
Method: Activity against Human Cytomegalovirus is determined by employing the Human Cytomegalovirus (HCMV) Assay. Two tissue culture assays are available; Cell Protection and Plaque Reduction. Both assays utilize MRC-5 cells (human fetal lung) and Eisenhart Human Cytomegalovirus. The following is a description of the Cell Protection and Plaque Reduction Assays.
Eight-two fold dilutions are made of the compound to be tested. After the dilutions are made, 0.5 ml of each dilution is added to each of three decanted wells of MRC-5. Two wells are used to determine the antiviral activity of the compound to be tested and one well is used to determine toxicity. The MRC-5 plates are then decanted, and the wells are infected with 0.1 ml of Human Cytomegalovirus inoculum containing ∼60 PFUs. The plates are then adsorbed for 1 hour at 37°C/5% CO₂. After one hour the virus is removed from the wells and duplicate wells are refed with dilutions of the compound to be tested. The plates are then incubated at 37°C/5% CO₂. Plaques are counted microscopically on day 6 post inoculation.

SMILES	Plag Red [µg/mL]
Nc1ccn(COC2COP(=O)(O)OC2)c(=O)n1 (stereo not drawn) [Sodium 1-[(2-hydroxy-1,3,2-dioxophosphorinan-5-yl)-oxymethyl]cytosine P-oxide]	25.00
Nc1nc2c(ncn2COC(CO)CO)c(=O)[nH]1 [2-amino-1,9-dihydro-9-((2-hydroxy-1-(hydroxymethyl)-ethoxy)methyl)-6H-Purin-6-one]	0.78
Nc1nc2c(ncn2COC2COP(=O)(O)OC2)c(=O)[nH]1 (stereo not drawn) [Sodium 9-[(2-hydroxy-1,3,2-dioxophosphorinan-5-yl)-oxymethyl]guanine P-oxide]	0.19
